# Results taken from patent publication US9051311B2, “Sulfamide sodium channel inhibitors” (AMGEN INC., priority 2012, dated 2015).
# Tests used:
# Nav 1.7 [1] = target: T1, Nav 1.7 (Homo sapiens (Human), UniProt Q15858); experiment: Nav 1.7 in vitro PatchExpress (PX) assay, whole cell voltage clamp; assay type: cell-based; conditions: 293 cells stably transfected with human Nav1.7; partially inactivated state (20 to 50% inactivation)
# Procedure: Nav 1.7 In Vitro PatchExpress (PX) Assay
# 293 cells stably transfected with human Nav1.7 were recorded in whole cell voltage clamp mode with the PatchXpress automated electrophysiology system (Molecular Devices, LLC, Sunnyvale, Calif.). Compound effects were measured on a partially inactivated state of the sodium channel. Cells were clamped to a holding potential yielding 20 to 50% inactivation. To elicit sodium current, channels were activated by pulsing to −10 mV for 20 msec. This voltage protocol was repeated at a rate of 0.1 Hz throughout the experiment. A single concentration of test compound was applied to cells for a duration of 3 minutes. Peak sodium current was measured at the end of the compound addition period to determine percent inhibition.
# Nav 1.7 [2] = target: T1, Nav 1.7; experiment: Nav 1.7 IonWorks Quattro (IWQ) in vitro assay, population patch-clamp; assay type: cell-based; conditions: 293 cells stably transfected with Nav 1.7; block at 26th pulse to −20 mV;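 further: cells held at −110 mV for 3 s, then 26 pulses of 150 ms at 5 Hz, leak-corrected peak current, percent block measured before and after compound, 3–8 min exposure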
# Procedure: (§1) Nav 1.7 and Nav 1.5 Ion Works Quattro (IWQ) In Vitro Assays
# (§2) 293 cells stably transfected with either Nav 1.7 or with Nav 1.5 were recorded in population patch-clamp mode with the IonWorks® Quattro automated electrophysiology system in accordance with the manufacturer's specifications (Molecular Devices, LLC, Sunnyvale, Calif.). Sodium channel currents were measured in response to a train of depolarizations that induced successively greater inactivation.
# (§3) Cells were held at −110 mV for three seconds (Nav 1.7) or half a second (Nav 1.5) from a holding voltage of −15 mV, then put through a series of 26 pulses of 150 msec duration to −20 mV at a frequency of 5 Hz. Cells were then left unclamped for a period of 3 to 8 minutes while a single concentration of test compound was added. Cells were then reclamped and put through the same voltage protocol. Current at the end of the 26th pulse to −20 mV was subtracted from the peak current evoked by the 26th pulse to −20 mV to correct for leak current. Percent block was calculated for each concentration in duplicate, and IC50 curves were fitted to percent block as a function of concentration.
# Nav 1.5 = Nav 1.5 (Homo sapiens (Human), UniProt Q14524); experiment: cell-based;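 further: HEK293 cells stably expressing Nav1.5, sodium current at the 26th of 26 pulses to −20 mV (150 ms, 5 Hz) after compound versus before, leak-corrected, 3–8 min exposure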
# Chain of Nav 1.5 (Q14524 whole entry): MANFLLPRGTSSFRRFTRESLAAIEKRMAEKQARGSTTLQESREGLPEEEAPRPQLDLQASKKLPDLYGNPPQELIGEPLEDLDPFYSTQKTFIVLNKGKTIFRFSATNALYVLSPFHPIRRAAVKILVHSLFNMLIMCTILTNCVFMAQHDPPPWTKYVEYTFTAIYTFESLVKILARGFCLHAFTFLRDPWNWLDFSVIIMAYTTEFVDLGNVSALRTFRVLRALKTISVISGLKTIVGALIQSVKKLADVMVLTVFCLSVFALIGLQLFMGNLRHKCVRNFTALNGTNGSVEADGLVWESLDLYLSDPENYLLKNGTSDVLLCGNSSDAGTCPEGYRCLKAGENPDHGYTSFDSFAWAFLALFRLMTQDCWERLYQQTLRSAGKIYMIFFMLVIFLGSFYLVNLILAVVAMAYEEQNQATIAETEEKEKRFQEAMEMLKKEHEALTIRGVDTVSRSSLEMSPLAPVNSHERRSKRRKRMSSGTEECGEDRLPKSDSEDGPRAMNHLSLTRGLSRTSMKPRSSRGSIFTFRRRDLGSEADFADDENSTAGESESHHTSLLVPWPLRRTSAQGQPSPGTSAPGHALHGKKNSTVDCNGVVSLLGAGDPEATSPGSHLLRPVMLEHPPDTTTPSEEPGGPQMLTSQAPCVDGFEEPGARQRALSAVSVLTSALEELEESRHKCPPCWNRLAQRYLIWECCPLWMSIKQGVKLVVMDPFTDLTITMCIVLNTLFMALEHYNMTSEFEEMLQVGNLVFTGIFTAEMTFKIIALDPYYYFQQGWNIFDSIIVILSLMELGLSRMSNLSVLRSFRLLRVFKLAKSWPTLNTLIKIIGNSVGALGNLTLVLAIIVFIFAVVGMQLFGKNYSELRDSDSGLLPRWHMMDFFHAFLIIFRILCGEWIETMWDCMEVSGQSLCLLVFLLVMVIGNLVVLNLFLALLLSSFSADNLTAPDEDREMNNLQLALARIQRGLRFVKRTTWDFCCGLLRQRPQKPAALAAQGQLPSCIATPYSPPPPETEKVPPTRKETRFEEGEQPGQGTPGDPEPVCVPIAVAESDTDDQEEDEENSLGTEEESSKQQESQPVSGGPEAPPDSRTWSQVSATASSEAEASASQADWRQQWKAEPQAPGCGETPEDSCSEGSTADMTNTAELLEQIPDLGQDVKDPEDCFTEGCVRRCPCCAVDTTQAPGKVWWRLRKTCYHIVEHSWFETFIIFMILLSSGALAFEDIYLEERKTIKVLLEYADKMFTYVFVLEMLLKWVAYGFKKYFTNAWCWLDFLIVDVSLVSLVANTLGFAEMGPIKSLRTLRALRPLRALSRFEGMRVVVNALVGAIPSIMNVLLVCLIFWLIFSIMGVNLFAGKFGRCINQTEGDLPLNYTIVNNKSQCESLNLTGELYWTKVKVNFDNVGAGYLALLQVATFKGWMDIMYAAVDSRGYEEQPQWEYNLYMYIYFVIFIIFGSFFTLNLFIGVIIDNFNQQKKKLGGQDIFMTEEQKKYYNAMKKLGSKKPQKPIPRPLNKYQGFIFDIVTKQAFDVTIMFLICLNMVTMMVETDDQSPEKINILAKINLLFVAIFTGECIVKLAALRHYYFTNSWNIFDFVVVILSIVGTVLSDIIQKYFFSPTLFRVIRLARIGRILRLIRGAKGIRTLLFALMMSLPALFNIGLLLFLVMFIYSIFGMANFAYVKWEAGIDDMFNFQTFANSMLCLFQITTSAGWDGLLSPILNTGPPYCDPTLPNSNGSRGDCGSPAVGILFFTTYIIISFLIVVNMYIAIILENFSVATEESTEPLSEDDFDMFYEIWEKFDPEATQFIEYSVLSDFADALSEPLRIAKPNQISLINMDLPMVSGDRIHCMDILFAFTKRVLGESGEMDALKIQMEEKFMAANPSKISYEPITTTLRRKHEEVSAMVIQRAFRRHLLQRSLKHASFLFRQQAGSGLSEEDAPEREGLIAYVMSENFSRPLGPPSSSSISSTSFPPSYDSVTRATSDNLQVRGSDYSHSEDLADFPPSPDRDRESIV
# Procedure: as §1, §2, §3
# T1 sequence (Q15858 whole entry): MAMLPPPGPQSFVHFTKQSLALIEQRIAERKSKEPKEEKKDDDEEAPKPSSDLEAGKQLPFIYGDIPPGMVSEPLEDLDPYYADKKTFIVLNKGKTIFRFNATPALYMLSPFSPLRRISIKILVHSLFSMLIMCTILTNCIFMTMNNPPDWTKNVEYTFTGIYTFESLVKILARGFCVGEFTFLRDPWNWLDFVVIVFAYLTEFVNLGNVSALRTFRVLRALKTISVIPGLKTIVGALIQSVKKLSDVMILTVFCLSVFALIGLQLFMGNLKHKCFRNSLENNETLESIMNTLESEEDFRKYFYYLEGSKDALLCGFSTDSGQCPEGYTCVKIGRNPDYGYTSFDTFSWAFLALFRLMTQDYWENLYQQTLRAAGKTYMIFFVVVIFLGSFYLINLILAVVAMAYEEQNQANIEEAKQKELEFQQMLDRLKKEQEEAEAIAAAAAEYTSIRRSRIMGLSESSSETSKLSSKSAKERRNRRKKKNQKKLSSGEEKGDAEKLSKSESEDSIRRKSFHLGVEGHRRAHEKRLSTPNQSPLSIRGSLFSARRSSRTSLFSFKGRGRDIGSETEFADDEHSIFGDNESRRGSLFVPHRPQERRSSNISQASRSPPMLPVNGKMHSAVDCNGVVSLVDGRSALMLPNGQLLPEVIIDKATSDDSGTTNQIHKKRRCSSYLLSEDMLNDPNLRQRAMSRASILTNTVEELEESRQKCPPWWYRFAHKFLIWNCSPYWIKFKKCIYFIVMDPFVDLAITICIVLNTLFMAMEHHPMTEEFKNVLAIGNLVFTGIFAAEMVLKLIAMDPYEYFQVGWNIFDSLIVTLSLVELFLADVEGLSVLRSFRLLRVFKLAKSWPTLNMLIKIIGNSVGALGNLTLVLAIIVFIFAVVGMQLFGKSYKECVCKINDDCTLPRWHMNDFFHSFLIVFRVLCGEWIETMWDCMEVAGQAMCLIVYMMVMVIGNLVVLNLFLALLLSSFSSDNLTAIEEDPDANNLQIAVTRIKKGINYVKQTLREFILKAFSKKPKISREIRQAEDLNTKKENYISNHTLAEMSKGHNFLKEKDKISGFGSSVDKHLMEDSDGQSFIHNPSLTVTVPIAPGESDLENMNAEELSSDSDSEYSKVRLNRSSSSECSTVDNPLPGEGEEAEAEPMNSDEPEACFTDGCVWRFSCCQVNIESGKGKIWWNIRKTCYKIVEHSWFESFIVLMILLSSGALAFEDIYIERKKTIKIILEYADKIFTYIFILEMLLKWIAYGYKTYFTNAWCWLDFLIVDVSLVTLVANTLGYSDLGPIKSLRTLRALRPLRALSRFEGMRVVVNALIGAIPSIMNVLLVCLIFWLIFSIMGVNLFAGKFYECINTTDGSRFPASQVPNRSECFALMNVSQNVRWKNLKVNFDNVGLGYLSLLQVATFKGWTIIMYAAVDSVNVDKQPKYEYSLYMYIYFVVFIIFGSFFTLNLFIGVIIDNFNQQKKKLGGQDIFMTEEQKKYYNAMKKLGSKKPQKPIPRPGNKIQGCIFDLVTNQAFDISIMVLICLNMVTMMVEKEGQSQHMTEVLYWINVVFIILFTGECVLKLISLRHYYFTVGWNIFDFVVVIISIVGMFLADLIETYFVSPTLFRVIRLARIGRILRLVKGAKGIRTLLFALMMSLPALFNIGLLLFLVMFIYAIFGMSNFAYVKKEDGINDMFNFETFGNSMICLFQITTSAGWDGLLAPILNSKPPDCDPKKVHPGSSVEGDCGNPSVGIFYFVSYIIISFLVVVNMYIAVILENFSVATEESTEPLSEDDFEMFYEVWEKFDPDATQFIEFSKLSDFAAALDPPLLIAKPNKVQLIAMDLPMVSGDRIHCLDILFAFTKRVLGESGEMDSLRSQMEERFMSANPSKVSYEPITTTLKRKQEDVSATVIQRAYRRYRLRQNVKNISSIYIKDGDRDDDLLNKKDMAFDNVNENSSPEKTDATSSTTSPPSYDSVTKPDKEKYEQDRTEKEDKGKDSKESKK
Compound,IC50 (Nav 1.7 [1]) [nM],IC50 (Nav 1.7 [2]) [nM],IC50 (Nav 1.5) [nM]
"O=S(=O)(Nc1ncns1)N1CCc2c(cccc2-c2ccc(C(F)(F)F)cc2Br)C1 [Example 4, 5-(2-Bromo-4-(trifluoromethyl)phenyl)-N-(1,2,4-thiadiazol-5-yl)-3,4-dihydroisoquinoline-2(1H)-sulfonamide]",560,527,> 10000
"O=S(=O)(Nc1ncns1)N1CCc2c(cccc2-c2ccc(C(F)(F)F)cc2F)C1 [Example 8, 5-(2-Fluoro-4-(trifluoromethyl)phenyl)-N-(1,2,4-thiadiazol-5-yl)-3,4-dihydroisoquinoline-2(1H)-sulfonamide]",3130,1840,> 10000
"O=S(=O)(Nc1ncc(F)s1)N1CCc2c(cccc2-c2ccc(C(F)(F)F)cc2-n2ccnc2)C1 [Example 38, 5-(2-(1H-Imidazol-1-yl)-4-(trifluoromethyl)phenyl)-N-(5-fluorothiazol-2-yl)-3,4-dihydroisoquinoline-2(1H)-sulfonamide]",690,91.7,> 10000
"COc1cc(C(F)(F)F)ccc1-c1ncnc2c1CCN(S(=O)(=O)Nc1nccs1)C2 [Example 59, 4-(2-methoxy-4-(trifluoromethyl)phenyl)-N-(thiazol-2-yl)-5,6-dihydropyrido[3,4-d]pyrimidine-7(8H)-sulfonamide]",1050,87,> 10000
"O=S(=O)(Nc1ccncn1)N1CCc2c(cccc2-c2ccc(C(F)(F)F)cc2C2=CCNCC2)C1 [Example 37, N-(Pyrimidin-4-yl)-5-(2-(1,2,3,6-tetrahydropyridin-4-yl)-4-(trifluoromethyl)phenyl)-3,4-dihydroisoquino line-2(1H)-sulfonamide]",19000,3940,> 10000
"O=S(=O)(Nc1ncns1)N1CCc2c(cccc2-c2ccc(C(F)(F)F)cc2C2=CCOCC2)C1 [Example 19, 5-(2-(3,6-Dihydro-2H-pyran-4-yl)-4-(trifluoromethyl)phenyl)-N-(1,2,4-thiadiazol-5-yl)-3,4-dihydroisoquinoline-2(1H)-sulfonamide]",1710,378,> 10000
"Cn1nccc1-c1cc(C(F)(F)F)ccc1-c1cccc2c1CCN(S(=O)(=O)Nc1ncccn1)C2 [Example 49, 5-(2-(1-Methyl-1H-pyrazol-5-yl)-4-(trifluoromethyl)phenyl)-N-(pyrimidin-2-yl)-3,4-dihydroisoquinoline-2(1H)-sulfonamide]",14600,12700,> 10000
"C[N+]1(C)CC=C(c2cc(C(F)(F)F)ccc2-c2cccc3c2CCN(S(=O)(=O)Nc2ncns2)C3)CC1 [Example 14, 4-(2-(2-(N-(1,2,4-Thiadiazol-5-yl)sulfamoyl)-1,2,3,4-tetrahydroisoquinolin-5-yl)-5-(trifluoromethyl)phenyl)-1,1-dimethyl-1,2,3,6-tetrahydropyridin-1-ium hydroxide]",3530,684,> 10000
"Cc1cncn1-c1cc(C(F)(F)F)ccc1-c1cccc2c1CCN(S(=O)(=O)Nc1ncc(F)s1)C2 [Example 43, N-(5-Fluorothiazol-2-yl)-5-(2-(5-methyl-1H-imidazol-1-yl)-4-(trifluoromethyl)phenyl)-3,4-dihydroisoquinoline-2(1H)-sulfonamide]",1920,171,> 10000
"CN1CC=C(c2ccc(C(F)(F)F)cc2-c2cccc3c2CCN(S(=O)(=O)Nc2ncc(F)s2)C3)CC1 [Example 40, N-(5-Fluorothiazol-2-yl)-5-(2-(1-methyl-1,2,3,6-tetrahydropyridin-4-yl)-5-(trifluoromethyl)phenyl)-3,4-dihydroisoquinoline-2(1H)-sulfonamide]",12100,2810,> 10000
"COc1ccc(-c2cccc3c2CCN(S(=O)(=O)Nc2ncns2)C3)c(OC)c1 [Example 26, 5-(2,4-Dimethoxyphenyl)-N-(1,2,4-thiadiazol-5-yl)-3,4-dihydroisoquinoline-2(1H)-sulfonamide]",2200,1510,> 10000
"Cn1cc(-c2cc(C(F)(F)F)ccc2-c2cccc3c2CCN(S(=O)(=O)Nc2ncns2)C3)cn1 [Example 16, 5-(2-(1-Methyl-1H-pyrazol-4-yl)-4-(trifluoromethyl)phenyl)-N-(1,2,4-thiadiazol-5-yl)-3,4-dihydroisoquinoline-2(1H)-sulfonamide]",5420,2660,> 10000
"Cc1cn(-c2cc(C(F)(F)F)ccc2-c2cccc3c2CCN(S(=O)(=O)Nc2ncc(F)s2)C3)cn1 [Example 42, N-(5-fluorothiazol-2-yl)-5-(2-(4-methyl-1H-imidazol-1-yl)-4-(trifluoromethyl)phenyl)-3,4-dihydroisoquinoline-2(1H)-sulfonamide]",1340,228,> 10000
"O=S(=O)(Nc1ccncn1)N1CCc2c(cccc2-c2ccc(C(F)(F)F)cc2Br)C1 [Example 56, 5-(2-Bromo-4-(trifluoromethyl)phenyl)-N-(pyrimidin-4-yl)-3,4-dihydroisoquinoline-2(1H)-sulfonamide]",> 10000,38900,> 10000

# These reach a lower IC50 (Nav 1.7 [1]). Values come first.
IC50 (Nav 1.7 [1]) [nM],IC50 (Nav 1.7 [2]) [nM],Compound,IC50 (Nav 1.5) [nM]
470,80.5,"O=S(=O)(Nc1ncns1)N1CCc2c(cccc2-c2ccc(C(F)(F)F)cc2-c2cccnc2)C1 [Example 22, 5-(2-(Pyridin-3-yl)-4-(trifluoromethyl)phenyl)-N-(1,2,4-thiadiazol-5-yl)-3,4-dihydroisoquinoline-2(1H)-sulfonamide]",> 10000
370,62.8,"COc1ccc(F)cc1-c1cccc2c1CCN(S(=O)(=O)Nc1ncns1)C2 [Example 29, 5-(5-Fluoro-2-methoxyphenyl)-N-(1,2,4-thiadiazol-5-yl)-3,4-dihydroisoquinoline-2(1H)-sulfonamide]",> 10000
350,157,"O=S(=O)(Nc1ncns1)N1CCc2c(cccc2-c2ccc(C(F)(F)F)cc2-c2cn[nH]c2)C1 [Example 17, 5-(2-(1H-Pyrazol-4-yl)-4-(trifluoromethyl)phenyl)-N-(1,2,4-thiadiazol-5-yl)-3,4-dihydroisoquinoline-2(1H)-sulfonamide]",> 10000
260,135,"COc1cc(C(F)(F)F)ccc1-c1cccc2c1CCN(S(=O)(=O)Nc1ncns1)C2 [Example 44, 5-(2-Methoxy-4-(trifluoromethyl)phenyl)-N-(1,2,4-thiadiazol-5-yl)-3,4-dihydroisoquinoline-2(1H)-sulfonamide]",> 10000
120,36.3,"Cn1nccc1-c1cc(C(F)(F)F)ccc1-c1cccc2c1CCN(S(=O)(=O)Nc1ncns1)C2 [Example 1, 5-(2-(1-Methyl-1H-pyrazol-5-yl)-4-(trifluoromethyl)phenyl)-N-(1,2,4-thiadiazol-5-yl)-3,4-dihydroisoquinoline-2(1H)-sulfonamide]",> 10000
70,45.3,"Nc1cc(-c2cc(C(F)(F)F)ccc2-c2cccc3c2CCN(S(=O)(=O)Nc2ncns2)C3)ccn1 [Example 18, 5-(2-(2-Aminopyridin-4-yl)-4-(trifluoromethyl)phenyl)-N-(1,2,4-thiadiazol-5-yl)-3,4-dihydroisoquinoline-2(1H)-sulfonamide]",> 10000
